≈ marks a conversion by molar mass, not a printed value. Read-outs that look alike come from different tables or passages of the source.

In data set [1] the test system is A2780 ovarian carcinoma cells. The data set is described as follows: Antiproliferative activity on A2780 cells (MTT). The following applies: Homo sapiens, 96 h, four days of incubation, read-out: Cellular activity pIC50 (converted). It is filed as cell-based. As for the experimental part: Cellular activity of the compounds of formula (I) was determined on A2780 tumour cells using a colorimetric assay for cell toxicity or survival (Mosmann Tim, Journal of Immunological Methods 65: 55-63, 1983)(see example C.2).
All compounds tested were dissolved in DMSO and further dilutions were made in culture medium. Final DMSO concentrations never exceeded 0.1% (v/v) in cell proliferation assays. Controls contained A2780 cells and DMSO without compound and blanks contained DMSO but no cells. MTT was dissolved at 5 mg/ml in PBS. A glycine buffer comprised of 0.1 M glycine and 0.1 M NaCl buffered to pH 10.5 with NaOH (1 N) was prepared (all reagents were from Merck).
The human A2780 ovarian carcinoma cells (a kind gift from Dr. T. C. Hamilton [Fox Chase Cancer Centre, Pennsylvania, USA]) were cultured in RPMI 1640 medium supplemented with 2 mM L-glutamine, 50 μg/ml gentamicin and 10% fetal calf serum. Cells were routinely kept as monolayer cultures at 37° C. in a humidified 5% CO2 atmosphere. Cells were passaged once a week using a trypsin/EDTA solution at a split ratio of 1:40. All media and supplements were obtained from Life Technologies. Cells were free of mycoplasma contamination as determined using the Gen-Probe Mycoplasma Tissue Culture kit (supplier: BioMérieux).
Cells were seeded in NUNC™ 96-well culture plates (Supplier: Life Technologies) and allowed to adhere to the plastic overnight. Densities used for plating were 1500 cells per well in a total volume of 200 μl medium. After cell adhesion to the plates, medium was changed and drugs and/or solvents were added to a final volume of 200 μl. Following four days of incubation, medium was replaced by 200 μl fresh medium and cell density and viability was assessed using an […] assay. To each well, 25 μl μl MTT solution was added and the cells were further incubated for 2 hours at 37° C. The medium was then carefully aspirated and the blue MT-formazan product was solubilized by addition of 25 μl glycine buffer followed by 100 μl of DMSO. […] Within an experiment, the results for each experimental condition are the mean of 3 replicate wells. For initial screening purposes, compounds were tested at a single fixed concentration of 10^−6 M. For active compounds, the experiments were repeated to establish full concentration-response curves. For each experiment, controls (containing no drug) and a blank incubation (containing no cells or drugs) were run in parallel. The blank value was subtracted from all control and sample values. For each sample, the mean value for cell growth (in absorbance units) was expressed as a percentage of the mean value for cell growth of the control. […] Herein the effects of test compounds are expressed as pIC50 (the negative log value of the IC50-value).

Data set [2] deals with histone deacetylase (HeLa nuclear extracts). The data set is described as follows: In vitro assay for inhibition of histone deacetylase. In kind it is biochemical. To be noted: HeLa nuclear extracts 60 μg/ml, [3H]acetylated histone H4 peptide substrate, 30 min. The protocol: The in vitro assay for inhibition of histone deacetylase (see example C.1) measures the inhibition of HDAC enzymatic activity obtained with the compounds of formula (I).
HeLa nuclear extracts (supplier: Biomol) were incubated at 60 μg/ml with 2×10^−8 M of radiolabeled peptide substrate. As a substrate for measuring HDAC activity a synthetic peptide, i.e. the amino acids 14-21 of histone H4, was used. The substrate is biotinylated at the NH2-terminal part with a 6-aminohexanoic acid spacer, and is protected at the COOH-terminal part by an amide group and specifically [^3H]acetylated at lysine 16. The substrate, biotin-(6-aminohexanoic)Gly-Ala-([^3H]-acetyl-Lys-Arg-His-Arg-Lys-Val-NH2), was added in a buffer containing 25 mM Hepes, 1 M sucrose, 0.1 mg/ml BSA and 0.01% Triton X-100 at pH 7.4. After 30 min the deacetylation reaction was terminated by the addition of HCl and acetic acid. (final concentration […] respectively). After stopping the reaction, the free ^3H-acetate was extracted with ethylacetate. After mixing and centrifugation, the radioactivity in an aliquot of the upper (organic) phase was counted in β-counter.
For each experiment, controls (containing HeLa nuclear extract and DMSO without compound), a blank incubation (containing DMSO but no HeLa nuclear extract or compound) and samples (containing compound dissolved in DMSO and HeLa nuclear extract) were run in parallel. In first instance, compounds were tested at a concentration of 10^−5M. […] In each test the blank value was substracted from both the control and the sample values. The control sample represented 100% of substrate deactylation. For each sample the radioactivity was expressed as a percentage of the mean value of the controls. […] Herein the effects of test compounds are expressed as pIC50 (the negative log value of the IC50-value).

Test in data set [3]: not given
This is another data set of the same source.

Data set [4] is described as follows: Kinetic solubility in aqueous media. It is filed as physicochemical. To be noted: aqueous buffer, kinetic from dmso stock; phosphate citrate buffer pH 7.4, turbidity by nephelometer; read-out: Solubility Score. As for the experimental part: Kinetic solubility in aqueous media measures the ability of a compound to stay in aqueous solution upon dilution (see example C.3).
DMSO-stock solutions are diluted with a single aqueous buffer solvent in 3 consecutive steps. For every dilution turbidity is measured with a nephelometer.
In the first dilution step, 10 μl of a concentrated stock-solution of the active compound, solubilized in DMSO (5 mM), was added to 100 μl phosphate citrate buffer pH 7.4 and mixed. In the second dilution step, an aliquot (20 μl) of the first dilution step was further dispensed in 100 μl phosphate citrate buffer pH 7.4 and mixed. Finally, in the third dilution step, a sample (20 μl) of the second dilution step was further diluted in 100 μl phosphate citrate buffer pH 7.4 and mixed. All dilutions were performed in 96-well plates. Immediately after the last dilution step the turbidity of the three consecutive dilution steps were measured with a nephelometer. Dilution was done in triplicate for each compound to exclude occasional errors. Based on the turbidity measurements a ranking is performed into 3 classes. Compounds with high solubility obtained a score of 3 and for this compounds the first dilution is clear. Compounds with medium solubility obtained a score of 2. For these compounds the first dilution is unclear and the second dilution is clear. […] The solubility of 9 compounds was measured.

With `CCCO` [propanol], the “% metabolism” value (15 min incubation with active microsomes (1 mg/ml), compound 5 μM) amounted to 25%.

For the compound `O=C(NO)c1ccc(N2CCC(CNS(=O)(=O)c3ccc4ccccc4c3)CC2)nc1` [Co. No. 4], in data set [1], the IC50 is 1.36 µM. For the same compound, the “Enzyme activity pIC50” value in data set [2] is on record as 7.574. Moreover, in data set [3], the melting point (as a rule, the temperature, or range, at which the solid turns liquid) stood at 173 °C. Besides, the solubility – broadly, the dissolved amount per volume that the medium holds – in data set [4] is less than 76 µM.

Take `O=C(NO)c1cnc(N2CCC(CNS(=O)(=O)c3ccc4ccccc4c3)CC2)nc1` [Co. No. 5]: the IC50 in data set [1] was 0.369 µM. Besides, in data set [2], the “Enzyme activity pIC50” value was determined as 8.123. In data set [4], the solubility was less than 76 µM.

On to `O=C(NO)c1cnc(N2CCC(NS(=O)(=O)c3ccc4ccccc4c3)CC2)nc1` [Co. No. 2], for which the IC50 in data set [1] is 0.0271 µM. In addition, the “Enzyme activity pIC50” value in data set [2] was found to be 6.104. In data set [3], this compound showed a melting point of 200 °C. In addition, the solubility in data set [4] is more than 455 µM.

Turning to `O=C(NO)c1cnc(N2CC[C@H](NS(=O)(=O)c3ccc4ccccc4c3)[C@H](CO)C2)nc1` [Co. No. 7], the IC50 in data set [1] was 9.62 µM. The “Enzyme activity pIC50” value in data set [2] was found to be 7.533. In data set [3], this compound registered a melting point of 203 °C. For the same compound, in data set [4], the solubility was more than 455 µM.

As for `COc1cc(N)c(Cl)cc1C(=O)NC1CCN(CCCOc2ccc(F)cc2)CC1OC` (stereo not shown) [Cisapride], the “% metabolism” value (human, 15 min, 5 μM) came to 45%.

Consider `O=C(NO)c1ccc(N2CCC(NS(=O)(=O)c3ccc(-c4ccccc4)cc3)CC2)nc1` [compound 15], for which, in data set [1], the IC50 was 1.24 µM. In addition, the “Enzyme activity pIC50” value in data set [2] was 7.413. For the same compound, in data set [4], the solubility is less than 76 µM.

Consider `O=C(NO)c1cnc(N2CCC(NS(=O)(=O)N3CCOCC3)CC2)nc1` [Co. No. 25], for which the IC50 in data set [1] is more than 10 µM. Further, the “Enzyme activity pIC50” value in data set [2] was 6.449. In addition, the melting point in data set [3] came out at 217 °C.

In the case of `O=C(NO)c1cnc(N2CCC(O)(CNS(=O)(=O)c3ccc4ccccc4c3)CC2)nc1` [Co. No. 9], in data set [1], the IC50 is more than 10 µM. Moreover, the “Enzyme activity pIC50” value in data set [2] is 7.579. Further, the melting point in data set [3] worked out at 228 °C. Besides, the solubility in data set [4] was in the range of 76 to 455 µM (≈ 34.8 to 208 µg/mL).

Regarding `O=C(NO)c1cnc(N2CC[C@H](CNS(=O)(=O)c3ccc4ccccc4c3)[C@H](O)C2)nc1` [Co. No. 8], in data set [1], the IC50 is 3.04 µM. Also, the “Enzyme activity pIC50” value in data set [2] stood at 7.355. This compound also came in with a melting point in data set [3] of 224 °C. In data set [4], the solubility was more than 455 µM.

Values taken from patent publication US7767679B2, “Sulfonylamino-derivatives as novel inhibitors of histone deacetylase” (Janssen Pharmaceutica N.V., priority 2002, dated 2010).
